≈ marks a conversion by molar mass, not a printed value. Where two headings read alike, the source gives them in different places.
Key:
[1] = tested on: C. freundii 902; assay: Minimum inhibitory concentration in vitro, agar dilution method; type: cell-based; conditions: Citrobacter freundii
Excerpt: (§1) 1. Minimum Inhibitory Concentration in vitro
(§2) The activities ascertained, minimum inhibitory concentration (MIC) in μg/ml, are compiled in Table 1 hereinafter: […]

[2] = tested on: E. aerogenes CF153; assay: as above; type: cell-based; conditions: Klebsiella aerogenes, CF153
Excerpt: as §1, §2

[3] = tested on: E. cloacae 908R; assay: as above; type: cell-based; conditions: Enterobacter cloacae
Excerpt: as §1, §2

[4] = tested on: E. cloacae 908SSi; assay: as above; type: cell-based; conditions: Enterobacter cloacae
Excerpt: as §1, §2

[5] = tested on: E. cloacae P99; assay: as above; type: cell-based; conditions: Enterobacter cloacae
Excerpt: as §1, §2

[6] = tested on: E. coli 25922; assay: as above; type: cell-based; conditions: Escherichia coli
Excerpt: as §1, §2

[7] = tested on: K. oxytoca 1082; assay: as above; type: cell-based; conditions: Klebsiella oxytoca
Excerpt: as §1, §2

[8] = tested on: K. pneumoniae 418; assay: as above; type: cell-based; conditions: Klebsiella pneumoniae
Excerpt: as §1, §2

[9] = tested on: P. aeruginosa 27853; assay: as above; type: cell-based; conditions: Pseudomonas aeruginosa
Excerpt: as §1, §2

[10] = tested on: P. aeruginosa 799/61; assay: as above; type: cell-based; conditions: Pseudomonas aeruginosa
Excerpt: as §1, §2

[11] = tested on: P. aeruginosa 799/WT; assay: as above; type: cell-based; conditions: Pseudomonas aeruginosa
Excerpt: as §1, §2

[12] = tested on: P. aeruginosa BA; assay: as above; type: cell-based; conditions: Pseudomonas aeruginosa
Excerpt: as §1, §2

[13] = tested on: P. aeruginosa MK1184; assay: as above; type: cell-based; conditions: Pseudomonas aeruginosa
Excerpt: as §1, §2

[14] = tested on: P. mirabilis 2117; assay: as above; type: cell-based; conditions: Proteus mirabilis
Excerpt: as §1, §2

[15] = tested on: P. vulgaris 1028; assay: as above; type: cell-based; conditions: Proteus vulgaris
Excerpt: as §1, §2

[16] = tested on: S. aureus 6538; assay: as above; type: cell-based; conditions: Staphylococcus aureus
Excerpt: as §1, §2

[17] = tested on: S. marcescens 69438; assay: as above; type: cell-based; conditions: Serratia marcescens
Excerpt: as §1, §2

[18] = tested on: S. pyogenes 15; assay: as above; type: cell-based; conditions: Streptococcus pyogenes
Excerpt: as §1, §2

[19] = tested on: E. coli 25922; assay: Experimental systemic septicaemia in the mouse; type: in vivo; conditions: 96 h
Outline: (§3)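 ED50 in mg/kg s.c. is the Probit-derived dose protecting half the mice, judged on survival 4 days after i.p. challenge (about 5-100× 48 h LD50) in 16-20 g albino mice, 5 per group. Dosing was s.c. in 2% Tween 80 at 1 and 3 h, plus 5 h for P. aeruginosa.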

[20] = tested on: Pseudomonas aeruginosa BA; assay: Experimental systemic septicaemia in the mouse; type: in vivo; conditions: sc, 96 h
Outline: as §3

[21] = tested on: S. aureus Schoch; assay: Experimental systemic septicaemia in the mouse; type: in vivo; conditions: Staphylococcus aureus, sc, 96 h
Outline: as §3

[22] = tested on: S. pneumoniae BA; assay: Minimum inhibitory concentration in vitro, agar dilution method; type: cell-based; conditions: Streptococcus pneumoniae
Excerpt: as §1, §2

| Compound | MIC [1]; 902 | MIC ([3]; 908R) | MIC ([4]; 908SSI) | MIC [5] | MIC [6]; 25922 | MIC [7]; 1082 | MIC [8]; 418 | MIC [9]; 27853 | MIC ([10]; 799/61) | MIC ([11]; 799/WT) | MIC [12] | MIC ([13]; MK1184) | MIC [14]; 2117 | MIC [15]; 1028 | MIC [16]; 6538 | MIC [17]; 69438 | MIC [18]; 15 | ED50 ([19]; Escherichia coli, 25922, sc) | ED50 [20] | ED50 [21] | other results |
| --- | --- | --- | --- | --- | --- | --- | --- | --- | --- | --- | --- | --- | --- | --- | --- | --- | --- | --- | --- | --- | --- |
| Cc1cc(SCC2=C(C(=O)[O-])N3C(=O)[C@@H](NC(=O)/C(=N\OCc4ccc(O)c(O)c4)c4csc(N)n4)[C@H]3SC2)n2nc(CS(=O)(=O)c3ccc(O)c(O)c3)nc2n1.[Na+] [Example 11, (6R,7R)-7-[(Z)-2-(2-amino-4-thiazolyl)-2-[[(3,4-dihydroxybenzyl)oxy]imino]acetamido]-3-[[[2-[[(3,4-dihydroxyphenyl)sulphonyl]methyl]-5-methyl-s-triazolo[1,5-a]pyrimidin-7-yl]thio]methyl]-8-oxo-5-thia-1-azabicyclo[4.2.0]oct-2-ene-2-carboxylic acid sodium salt (1:1)] | 0.12 µg/mL | 2 µg/mL | 4 µg/mL | 16 µg/mL | < 0.1 µg/mL | < 0.1 µg/mL | < 0.1 µg/mL | < 0.1 µg/mL | < 0.1 µg/mL | 0.12 µg/mL | 0.12 µg/mL | < 0.1 µg/mL | 0.12 µg/mL | 0.25 µg/mL | 8 µg/mL | 0.25 µg/mL | 2 µg/mL | < 0.05 mg/kg | 0.035 mg/kg | 3.5 mg/kg | MIC [2]: 1 µg/mL |
| Cc1cc(SCC2=C(C(=O)[O-])N3C(=O)[C@@H](NC(=O)/C(=N\OCc4ccc(O)c(O)c4F)c4csc(N)n4)[C@H]3SC2)n2nc(CS(=O)(=O)c3ccc(O)c(O)c3)nc2n1.[Na+] [Example 12, (6R,7R)-7-[(Z)-2-(2-amino-4-thiazolyl)-2-[[(2-fluoro-3,4-dihydroxybenzyl)oxy]imino]acetamido]-3-[[[2-[[(3,4-dihydroxyphenyl)sulphonyl]methyl]-5-methyl-s-triazolo[1,5-a]pyrimidin-7-yl]thio]methyl]-8-oxo-5-thia-1-azabicyclo[4.2.0]oct-2-ene-2-carboxylic acid sodium salt (1:1)] | < 0.1 µg/mL | 2 µg/mL | 4 µg/mL | 8 µg/mL | < 0.1 µg/mL | 0.5 µg/mL | < 0.1 µg/mL | < 0.1 µg/mL | < 0.1 µg/mL | < 0.1 µg/mL | < 0.1 µg/mL | < 0.1 µg/mL | 0.12 µg/mL | 0.25 µg/mL | 16 µg/mL | < 0.1 µg/mL | 2 µg/mL | < 0.05 mg/kg | 0.028 mg/kg | 6.2 mg/kg | MIC [2]: 4 µg/mL |
| Cc1cc(SCC2=C(C(=O)O)N3C(=O)[C@@H](NC(=O)/C(=N\OC(C)(C)C(=O)NNC(=O)c4ccc(O)c(O)c4)c4csc(N)n4)[C@H]3SC2)n2nc(COC(=O)c3ccc(O)c(O)c3)nc2n1 [Example 43] | – | – | – | 0.12 µg/mL (≈ 0.126 µM) | – | – | – | – | – | – | – | – | – | – | – | – | – | – | – | – | MIC ([1]; C. freundii 902, agar dilution, read-out: MIC): < 0.1 µg/mL; MIC ([3]; E. cloacae 908R, agar dilution, read-out: MIC): 0.12 µg/mL (≈ 0.126 µM); MIC ([4]; E. cloacae 908SSi, agar dilution, read-out: MIC): 2 µg/mL (≈ 2.11 µM); MIC ([6]; E. coli 25922, agar dilution, read-out: MIC): < 0.1 µg/mL; MIC ([7]; K. oxytoca 1082, agar dilution, read-out: MIC): < 0.1 µg/mL; MIC ([8]; K. pneumoniae 418, agar dilution, read-out: MIC): < 0.1 µg/mL; MIC ([9]; P. aeruginosa 27853, agar dilution, read-out: MIC): 0.25 µg/mL (≈ 0.263 µM); MIC ([10]; P. aeruginosa 799/61, agar dilution, read-out: MIC): < 0.1 µg/mL; MIC ([11]; P. aeruginosa 799/WT, agar dilution, read-out: MIC): < 0.1 µg/mL; MIC ([12]; P. aeruginosa BA, agar dilution, read-out: MIC): < 0.1 µg/mL; MIC ([13]; P. aeruginosa MK1184, agar dilution, read-out: MIC): < 0.1 µg/mL; MIC ([14]; P. mirabilis 2117, agar dilution, read-out: MIC): 0.12 µg/mL (≈ 0.126 µM); MIC ([15]; P. vulgaris 1028, agar dilution, read-out: MIC): 0.12 µg/mL (≈ 0.126 µM); MIC ([16]; S. aureus 6538, agar dilution, read-out: MIC): 16 µg/mL (≈ 16.8 µM); MIC ([17]; S. marcescens 69438, agar dilution, read-out: MIC): 0.12 µg/mL (≈ 0.126 µM); MIC ([22]; S. pneumoniae BA, agar dilution, read-out: MIC): 4 µg/mL (≈ 4.21 µM); MIC ([18]; S. pyogenes 15, agar dilution, read-out: MIC): 8 µg/mL (≈ 8.42 µM); ED50 ([19]; Escherichia coli, sc, E. coli 25922, albino mice, s.c. 1 and 3 hours after infection, survival after 4 days, read-out: ED50): 0.05 mg/kg; ED50 ([20]; P. aeruginosa BA, albino mice, s.c. 1, 3 and 5 hours after infection, survival after 4 days, read-out: ED50): 0.019 mg/kg; ED50 ([21]; S. aureus Schoch, albino mice, s.c. 1 and 3 hours after infection, survival after 4 days, read-out: ED50): 12 mg/kg |
| Cc1cc(SCC2=C(C(=O)[O-])N3C(=O)[C@@H](NC(=O)/C(=N\OC(C)(C)C(=O)NNC(=O)c4ccc(O)c(O)c4)c4csc(N)n4)[C@H]3SC2)n2nc(CNC(=O)c3ccc(O)c(O)c3)nc2n1.[Na+] [Example 61, (6R,7R)-7-[(Z)-2-(2-amino-4-thiazolyl)-2-[[1-[3-(3,4-dihydroxybenzoyl)carbazoyl]-1-methylethoxy]imino]acetamido]-3-[[[2-[[(3,4-dihydroxybenzoyl)amino]methyl]-5-methyl-s-triazolo[1,5-a]pyrimidin-7-yl]thio]methyl]-8-oxo-5-thiaazabicyclo[4.2.0]oct-2-ene-2-carboxylic acid sodium salt (1:1)] | < 0.1 µg/mL | 0.5 µg/mL | 1 µg/mL | 1 µg/mL | < 0.1 µg/mL | < 0.1 µg/mL | < 0.1 µg/mL | < 0.1 µg/mL | < 0.1 µg/mL | < 0.1 µg/mL | < 0.1 µg/mL | < 0.1 µg/mL | < 0.1 µg/mL | < 0.1 µg/mL | 16 µg/mL | < 0.1 µg/mL | 1 µg/mL | < 0.1 mg/kg | 0.06 mg/kg | 8.4 mg/kg | MIC [22]: 4 µg/mL |

From patent publication US5438052A, “Cephalosporin derivatives” (Hoffmann-La Roche Inc., priority 1991, dated 1995)
